According to patent publication US11897862B2 (Gilead Sciences, Inc., priority 2022, dated 2024):

How the values were obtained:
IKZF2 = IKZF2 (Homo sapiens, UniProt Q96SW2+Q9UKS7); assay: HEK293 HiBiT in vitro degradation of IKZF2; format: cell-based; set-up: expressed in transfected cells; details: for Dmax: HEK293, HEK293 HiBiT; for Dmax / IKZF2 Dmax: maximum degradation at the highest concentration tested; for DC50 / IKZF2 Dmax: HEK293 HiBiT; for DC50: 18-24 hr incubation, normalized to DMSO control, read-out: IKZF2 EC50
Description: (§1) In vitro degradation of IKZF1, IKZF2, and SALL4 was measured using HiBiT protein tagging and detection technology (Promega).
(§2) HiBit technology was used to develop the quantitative assays to measure the cellular IKZFs level by tagging an 11 amino acid HiBit peptides […] to the protein of interest. Reporter plasmids were generated by fusing a linker sequence ([…]) followed by the HiBit tag at the C-terminus of IKZF1, IKZF2, and SALL4. The fusion fragments were subsequently cloned into pcDNA5 pcDNA™5/FRT/TO plasmids (Thermo Fisher, cat #V652020) downstream of the tetracycline operator. The resulting plasmids were co-transfected with pOG44 Flp-Recombinase Expression Vector (Thermo Fisher, cat #V600520) into Flp-In™ T-REx HEK293 line (Thermo Fisher, cat #R78077) and a stable cell pool was selected by adding 100 µg/ml of Hygromycin (Thermo Fisher, cat #10687010). The reporter cell enabled Tet-On inducible reporter expression from a single copy of the integrated gene.
(§3) On Day 1, Cells were grown to ˜80% confluency in tissue culture medium (DMEM Glutamax (Gibco10569), 10% Tet free FBS (Takara 631106), and PenStrep Glutamin (Gibco 10378)) in tissue culture flasks. Doxycycline was then added to a final concentration of […] to induce reporter expression at 37° C. overnight.
(§4) On Day 2, 125 nL of serially-diluted solution of testing compounds were dispensed into 384-well white solid assay plates via ECHO acoustic liquid handler. Cells were lifted by 0.25% Trypsin (Gibco 25200) then pelleted by centrifugation (Beckman Avanti J-E) at 500×g for 5 min. Cell pellets were resuspended in TC medium at the concentration of 3e5/mL and 25 μL of cell suspension were added into each well of compound-spotted plates. The plates were returned to a 37° C. incubator overnight (18-24 hr).
(§5) On Day 3, assay plates were removed from the tissue culture incubator and 25 μL of Nano-Glo lytic detection system (Promega, cat #N3030) was added to each well. Plates were incubated at r.t. for 3 min with shaking, and luminescence was read using an Envision reader (Perkin Elmer).
(§6) To assess the IKZF1, IKZF2, and SALL4 degrader potential of exemplified compounds of this disclosure and certain Reference Compounds EC50 and Dmax values were determined for the compounds of Examples 1 to 383 and Reference Compounds A-1, B-1, B-2, B-3, B-4, and C-1 in the HiBiT assays. Asterisks (*) indicate examples for which the data shown represents an average of n≥3.

IKZF1 = target: T1, IKZF1 (Homo sapiens, UniProt Q13422+Q96SW2); assay: HEK293 HiBiT in vitro degradation of IKZF1; format: cell-based; details: for DC50 / IKZF1 Dmax: HEK293 HiBiT; for DC50: 18-24 hr incubation, normalized to DMSO control, read-out: IKZF1 EC50; for Dmax: HEK293, HEK293 HiBiT; for Dmax / IKZF1 Dmax: maximum degradation at the highest concentration tested
T1 construct: expressed in transfected cells
Description: as §1, §2, §3, §4, §5, §6

T1 sequence (Q13422 whole entry): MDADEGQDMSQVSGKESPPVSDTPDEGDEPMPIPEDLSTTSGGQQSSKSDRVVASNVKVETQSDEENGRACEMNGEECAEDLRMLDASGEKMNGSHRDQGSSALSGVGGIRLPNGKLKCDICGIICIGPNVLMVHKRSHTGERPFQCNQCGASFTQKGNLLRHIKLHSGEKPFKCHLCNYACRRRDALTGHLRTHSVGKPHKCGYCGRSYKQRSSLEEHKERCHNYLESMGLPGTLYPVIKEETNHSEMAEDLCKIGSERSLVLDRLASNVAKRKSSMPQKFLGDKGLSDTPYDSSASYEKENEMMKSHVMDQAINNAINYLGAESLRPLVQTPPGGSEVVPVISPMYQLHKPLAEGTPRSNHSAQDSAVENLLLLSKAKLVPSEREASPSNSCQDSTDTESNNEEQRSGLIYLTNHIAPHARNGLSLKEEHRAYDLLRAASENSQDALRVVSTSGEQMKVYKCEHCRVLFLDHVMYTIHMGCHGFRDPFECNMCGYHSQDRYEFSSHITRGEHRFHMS
T1 sequence (Q96SW2 whole entry): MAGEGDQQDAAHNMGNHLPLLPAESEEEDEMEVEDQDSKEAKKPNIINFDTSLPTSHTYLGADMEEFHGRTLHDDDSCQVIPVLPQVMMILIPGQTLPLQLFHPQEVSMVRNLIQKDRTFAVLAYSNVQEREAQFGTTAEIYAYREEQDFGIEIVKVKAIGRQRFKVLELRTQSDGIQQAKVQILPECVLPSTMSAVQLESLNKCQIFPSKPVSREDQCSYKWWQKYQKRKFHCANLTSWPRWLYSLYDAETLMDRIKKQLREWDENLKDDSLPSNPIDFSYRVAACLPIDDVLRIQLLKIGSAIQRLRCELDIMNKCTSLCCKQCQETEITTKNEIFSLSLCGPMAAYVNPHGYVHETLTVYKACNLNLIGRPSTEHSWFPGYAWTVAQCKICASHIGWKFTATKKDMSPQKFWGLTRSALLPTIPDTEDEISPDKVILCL
T1 sequence (Q16531 whole entry partner): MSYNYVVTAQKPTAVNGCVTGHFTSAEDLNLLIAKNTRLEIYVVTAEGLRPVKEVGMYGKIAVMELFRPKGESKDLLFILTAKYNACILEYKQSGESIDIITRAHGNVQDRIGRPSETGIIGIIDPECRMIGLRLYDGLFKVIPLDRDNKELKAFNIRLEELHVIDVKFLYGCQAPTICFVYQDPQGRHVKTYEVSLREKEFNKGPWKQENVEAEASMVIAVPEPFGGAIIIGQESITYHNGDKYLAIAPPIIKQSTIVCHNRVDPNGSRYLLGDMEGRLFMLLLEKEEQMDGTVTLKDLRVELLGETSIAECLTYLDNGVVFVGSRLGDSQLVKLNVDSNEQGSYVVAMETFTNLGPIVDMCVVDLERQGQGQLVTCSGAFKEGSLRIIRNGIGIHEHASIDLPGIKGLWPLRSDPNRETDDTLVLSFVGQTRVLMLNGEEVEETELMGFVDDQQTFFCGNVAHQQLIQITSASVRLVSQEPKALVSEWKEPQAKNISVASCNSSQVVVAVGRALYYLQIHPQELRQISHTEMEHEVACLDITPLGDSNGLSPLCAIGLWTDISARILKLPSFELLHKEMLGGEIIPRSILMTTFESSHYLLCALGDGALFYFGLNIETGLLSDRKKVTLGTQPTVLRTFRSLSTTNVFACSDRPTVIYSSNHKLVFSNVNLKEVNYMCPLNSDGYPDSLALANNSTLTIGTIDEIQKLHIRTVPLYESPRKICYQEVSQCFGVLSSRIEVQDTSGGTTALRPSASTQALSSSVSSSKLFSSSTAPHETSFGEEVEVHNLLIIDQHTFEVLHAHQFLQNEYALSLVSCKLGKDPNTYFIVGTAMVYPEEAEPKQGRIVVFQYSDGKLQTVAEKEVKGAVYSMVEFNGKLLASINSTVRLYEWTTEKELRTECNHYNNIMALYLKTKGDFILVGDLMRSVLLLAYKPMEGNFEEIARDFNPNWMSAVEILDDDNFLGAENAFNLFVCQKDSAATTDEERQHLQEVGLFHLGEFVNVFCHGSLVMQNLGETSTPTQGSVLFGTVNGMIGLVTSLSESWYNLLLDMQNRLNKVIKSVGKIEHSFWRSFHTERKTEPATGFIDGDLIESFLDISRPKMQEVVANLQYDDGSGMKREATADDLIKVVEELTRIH
Sequence of IKZF2 (Q9UKS7 1-500 isoform Q9UKS7-2): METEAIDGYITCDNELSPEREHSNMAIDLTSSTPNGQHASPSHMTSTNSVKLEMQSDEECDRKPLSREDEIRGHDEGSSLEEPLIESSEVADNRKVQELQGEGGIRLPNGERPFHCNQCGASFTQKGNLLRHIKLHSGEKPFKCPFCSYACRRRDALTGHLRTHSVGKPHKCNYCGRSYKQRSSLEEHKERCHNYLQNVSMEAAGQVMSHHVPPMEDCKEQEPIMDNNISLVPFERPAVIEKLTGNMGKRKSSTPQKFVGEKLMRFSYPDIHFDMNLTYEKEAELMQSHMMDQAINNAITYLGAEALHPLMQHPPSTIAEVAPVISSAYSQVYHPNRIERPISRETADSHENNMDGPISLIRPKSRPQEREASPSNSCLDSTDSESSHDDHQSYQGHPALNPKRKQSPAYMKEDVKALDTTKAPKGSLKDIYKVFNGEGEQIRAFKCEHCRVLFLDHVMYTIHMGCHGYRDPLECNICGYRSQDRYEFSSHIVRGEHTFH
Sequence of IKZF2 (Q96SW2 whole entry): as the sequence (Q96SW2 whole entry) above
Sequence of IKZF2 (Q16531 whole entry partner): as the sequence (Q16531 whole entry partner) above

Structure (SMILES) | Dmax (IKZF2) [%] | DC50 (IKZF2) [nM] | DC50 (IKZF1) [nM] | IKZF2 Dmax (IKZF2) [%] | Dmax (IKZF1) [%] | IKZF1 Dmax (IKZF1) [%]
O=C1CCC(N2Cc3cc(C[C@H]4CCCC[C@@H]4NC4CCC4)ccc3C2=O)C(=O)N1 (stereo partly drawn) [Example 48, 3-(5-(((1R,2S)-2-(cyclobutylamino)cyclohexyl)methyl)-1-oxoisoindolin-2-yl)piperidine-2,6-dione] | 96 | 24 | > 1000 | – | – | –
CCC(C)N[C@H]1CCCO[C@@H]1Cc1ccc2c(c1F)CN(C1CCC(=O)NC1=O)C2=O (single isomer, unassigned) [Example 293] | – | 8 | > 1000 | 94 | – | –
O=C1CCC(N2Cc3c(ccc(C[C@H]4OCCC[C@@H]4NC4CCCOC4)c3F)C2=O)C(=O)N1 (single isomer, unassigned) [Example 263] | – | 95 | > 1000 | 85 | – | –
CC(N[C@H]1CCCC[C@@H]1Cc1ccc2c(c1)CN(C1CCC(=O)NC1=O)C2=O)C1CCCO1 (single isomer, unassigned) [Example 254] | – | 33 | > 1000 | 84 | – | –
CC(CC1CC1)N[C@H]1CCCC[C@@H]1Cc1ccc2c(c1)CN(C1CCC(=O)NC1=O)C2=O (single isomer, unassigned) [Example 230] | 96 | 3 | 66 | – | 30 | –
O=C1CCC(N2Cc3cc(C[C@H]4CCCC[C@@H]4NCc4ccc(F)cc4F)ccc3C2=O)C(=O)N1 (stereo partly drawn) [Example 19, 3-(5-(((1R,2S)-2-((2,4-difluorobenzyl)amino)cyclohexyl)methyl)-1-oxoisoindolin-2-yl)piperidine-2,6-dione] | 89 | 30 | > 1000 | – | – | –
O=C1CCC(N2Cc3cc(C[C@H]4CCCC[C@@H]4NC4CCOC4)ccc3C2=O)C(=O)N1 (stereo partly shown) [Example 73] | 95 | 7 | > 1000 | – | – | –
CC(CC(F)(F)F)N[C@H]1CCCC[C@@H]1Cc1ccc2c(c1)CN(C1CCC(=O)NC1=O)C2=O (single isomer, unassigned) [Example 249] | 97 | 4 | > 1000 | – | – | –
C[C@@H]1CCCC[C@H]1N[C@H]1CCCC[C@@H]1Cc1ccc2c(c1)CN(C1CCC(=O)NC1=O)C2=O (relative stereo) [Example 303] | 82 | 86 | > 1000 | – | – | –
CC(N[C@H]1CCCC[C@@H]1Cc1ccc2c(c1)CN(C1CCC(=O)NC1=O)C2=O)C(C)(C)F (single isomer, unassigned) [Example 227] | – | 20 | > 500 | 86 | – | –
CC1(C)CCC(N[C@H]2CCCO[C@@H]2Cc2ccc3c(c2F)CN(C2CCC(=O)NC2=O)C3=O)C1 (single isomer, unassigned) [Example 259] | – | 11 | 68 | 96 | – | 25
CCC(C)N[C@H]1CCCO[C@@H]1Cc1ccc2c(c1F)CN(C1CCC(=O)NC1=O)C2=O (single isomer, unassigned) [Example 292] | 94 | 7 | > 1000 | – | – | –
CC(C)(C#N)CCN[C@H]1CCCC[C@@H]1Cc1ccc2c(c1)CN(C1CCC(=O)NC1=O)C2=O (stereo partly shown) [Example 133] | 96 | 32 | 132 | – | 30 | –
O=C1CCC(N2Cc3c(ccc(C[C@H]4CCCC[C@@H]4NCC4CC(F)(F)C4)c3F)C2=O)C(=O)N1 (stereo partly drawn) [Example 81, 3-(5-(((1R,2S)-2-(((3,3-difluorocyclobutyl)methyl)amino)cyclohexyl)methyl)-4-fluoro-1-oxoisoindolin-2-yl)piperidine-2,6-dione] | 96 | 4 | 28 | – | 41 | –
O=C1CCC(N2Cc3c(ccc(C[C@H]4OCCC[C@@H]4NC4CCc5cn[nH]c5C4)c3F)C2=O)C(=O)N1 (single isomer, unassigned) [Example 360] | 90 | 139 | > 1000 | – | – | –
O=C1CCC(N2Cc3cc(C[C@H]4CCCC[C@@H]4NC4CCS(=O)(=O)CC4)ccc3C2=O)C(=O)N1 (stereo partly drawn) [Example 91, 3-(5-(((1R,2S)-2-((1,1-dioxidotetrahydro-2H-thiopyran-4-yl)amino)cyclohexyl)methyl)-1-oxoisoindolin-2-yl)piperidine-2,6-dione] | 97 | 17 | 160 | – | 47 | –

Structure (SMILES) | Dmax (IKZF2) [%] | DC50 (IKZF2) [nM] | DC50 (IKZF1) [nM] | IKZF2 Dmax (IKZF2) [%] | Dmax (IKZF1) [%] | IKZF1 Dmax (IKZF1) [%]
CCC(C)N[C@H]1CCCC[C@@H]1Cc1ccc2c(c1)CN(C1CCC(=O)NC1=O)C2=O (stereo partly shown) [Example 176] | 96 | 3 | > 1000 | – | – | –
O=C1CCC(N2Cc3cc(C[C@H]4CCCC[C@@H]4NCc4cc(F)ccc4F)ccc3C2=O)C(=O)N1 (stereo partly drawn) [Example 22, 3-(5-(((1R,2S)-2-((2,5-difluorobenzyl)amino)cyclohexyl)methyl)-1-oxoisoindolin-2-yl)piperidine-2,6-dione] | 86 | 34 | > 1000 | – | – | –
O=C1CCC(N2Cc3cc(C[C@H]4CCCC[C@@H]4NCc4ncccc4F)ccc3C2=O)C(=O)N1 (stereo partly drawn) [Example 50, 3-(5-(((1R,2S)-2-(((3-fluoropyridin-2-yl)methyl)amino)cyclohexyl)methyl)-1-oxoisoindolin-2-yl)piperidine-2,6-dione] | 57 | 111 | > 1000 | – | – | –
CC1CCC(N[C@H]2CCCC[C@@H]2Cc2ccc3c(c2)CN(C2CCC(=O)NC2=O)C3=O)CC1 (single isomer, unassigned) [Example 279] | 95 | 3 | 51 | – | 30 | –
O=C1CCC(N2Cc3cc(C[C@H]4CCCC[C@@H]4NC4CC5CCC(C4)O5)ccc3C2=O)C(=O)N1 (stereo partly shown) [Example 184] | – | 3 | 56 | 97 | – | 30
[2H]c1c([2H])c([2H])c(C([2H])N[C@H]2CCCC[C@@H]2Cc2ccc3c(c2)CN(C2CCC(=O)NC2=O)C3=O)c([2H])c1[2H] (single isomer, unassigned) [Example 120] | 90 | – | – | – | 29 | –
N#CC1CCC(N[C@H]2CCCC[C@@H]2Cc2ccc3c(c2)CN(C2CCC(=O)NC2=O)C3=O)CC1 (single isomer, unassigned) [Example 268] | – | 6 | 76 | 98 | – | 62
CC1(C)CCC(N[C@H]2CCCO[C@@H]2Cc2ccc3c(c2F)CN(C2CCC(=O)NC2=O)C3=O)C1 (single isomer, unassigned) [Example 258] | 97 | 4 | 78 | – | 30 | –
CCCC(CCC)N[C@H]1CCCC[C@@H]1Cc1ccc2c(c1)CN(C1CCC(=O)NC1=O)C2=O (stereo partly shown) [Example 166] | 96 | 23 | > 1000 | – | – | –
O=C1CCC(N2Cc3c(ccc(C[C@H]4CCCC[C@@H]4NC4CCOC4)c3F)C2=O)C(=O)N1 (stereo partly shown) [Example 190] | – | 2 | 57 | 97 | – | 44
O=C1CCC(N2Cc3c(ccc(C[C@H]4OCCC[C@@H]4NCC4CC(F)(F)C4)c3F)C2=O)C(=O)N1 (stereo partly shown) [Example 150] | 73 | 51 | > 500 | – | – | –
O=C1CCC(N2Cc3c(ccc(C[C@H]4OCCC[C@@H]4NC4CCc5cn[nH]c5C4)c3F)C2=O)C(=O)N1 (single isomer, unassigned) [Example 361] | – | 34 | > 1000 | 102 | – | –
CC(N[C@H]1CCCC[C@@H]1Cc1ccc2c(c1)CN(C1CCC(=O)NC1=O)C2=O)C1CCCO1 (single isomer, unassigned) [Example 253] | 96 | 9 | > 1000 | – | – | –
O=C1CCC(N2Cc3c(ccc(C[C@H]4CCCC[C@@H]4NCC45CC(C4)C5)c3F)C2=O)C(=O)N1 (stereo partly shown) [Example 96] | 95 | 9 | 173 | – | 35 | –
O=C1CCC(N2Cc3cc(C[C@H]4CCCC[C@@H]4N[C@@H]4CCC(F)(F)C4)ccc3C2=O)C(=O)N1 (relative stereo) [Example 302, 3-(5-(((1R,2S)-rel-2-(((R)-3,3-difluorocyclopentyl)amino)cyclohexyl)methyl)-1-oxoisoindolin-2-yl)piperidine-2,6-dione] | 89 | 15 | > 1000 | – | – | –
